Active and inactive are the calls of the source. No rule for the calls is given here.
System: Cytotoxicity
Assay: STAT3 activation with BCL3 mRNA and toxicity – cell-based, STAT1 reporter, BCL3 qPCR, cytotoxicity, late-stage follow-up (AID 2049)
Details: human cell reporter, cytotoxicity panel

Compound	CC50
COc1cc(NC(=O)c2cc(C3CC3)on2)c(OC)cc1Cl	> 55.7 µM

Biological target: Signal transducer and activator of transcription 1-alpha/beta (Homo sapiens) (UniProt P42224)
Assay: as above
Details: STAT1, Activation

Chain of Signal transducer and activator of transcription 1-alpha/beta (Homo sapiens) (P42224 whole entry, looked up): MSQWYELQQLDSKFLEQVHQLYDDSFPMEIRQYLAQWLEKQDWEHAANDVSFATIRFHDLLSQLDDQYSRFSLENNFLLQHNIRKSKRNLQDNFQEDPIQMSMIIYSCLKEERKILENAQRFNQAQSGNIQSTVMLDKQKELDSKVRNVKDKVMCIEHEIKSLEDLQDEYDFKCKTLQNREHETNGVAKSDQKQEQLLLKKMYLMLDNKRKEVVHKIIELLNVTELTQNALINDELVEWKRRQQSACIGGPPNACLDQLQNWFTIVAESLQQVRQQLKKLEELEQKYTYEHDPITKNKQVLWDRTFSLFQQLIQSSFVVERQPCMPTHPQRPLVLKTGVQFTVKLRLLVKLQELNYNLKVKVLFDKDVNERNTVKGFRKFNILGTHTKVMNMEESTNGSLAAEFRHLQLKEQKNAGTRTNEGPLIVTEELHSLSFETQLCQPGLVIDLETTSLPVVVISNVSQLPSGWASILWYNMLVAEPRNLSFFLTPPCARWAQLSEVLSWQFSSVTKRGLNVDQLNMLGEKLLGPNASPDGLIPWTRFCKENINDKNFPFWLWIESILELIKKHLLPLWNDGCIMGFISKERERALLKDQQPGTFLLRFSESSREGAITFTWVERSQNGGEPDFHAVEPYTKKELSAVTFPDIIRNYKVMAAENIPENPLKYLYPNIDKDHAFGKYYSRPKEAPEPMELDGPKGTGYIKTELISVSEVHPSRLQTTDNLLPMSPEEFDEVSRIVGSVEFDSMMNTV

Compound	EC50
COc1cc(NC(=O)c2cc(C)on2)c(OC)cc1Cl	> 55.7 µM (inactive)
COc1cccc(NC(=O)c2cc(C3CC3)on2)c1	5.23 µM
CCCc1cc(C(=O)Nc2cc(OC)c(Cl)cc2OC)no1	> 55.7 µM (inactive)
O=C(Nc1ccccc1Cl)c1cc(C2CC2)on1	3.05 µM
COc1cc(NC(=O)c2cc(C3CC3)on2)cc(OC)c1	inactive
COc1cc(NC(=O)c2cc(C(C)C)on2)c(OC)cc1Cl	> 55.7 µM (inactive)
COc1ccc(Cl)cc1NC(=O)c1cc(C2CC2)on1	> 55.7 µM (inactive)
COc1cc(OC)c(NC(=O)c2cc(CN3CCCC3)on2)cc1Cl	> 55.7 µM (inactive)
Nc1c(C(=O)Nc2ccccc2)noc1C(=O)c1ccccc1	> 55.7 µM (inactive)
CN(C(=O)c1cc(C2CC2)on1)c1ccccc1	> 55.7 µM (inactive)
COc1cc(NC(=O)c2cc(C3CC3)on2)c(OC)cc1Cl	> 55.7 µM (inactive)
COc1ccc(OC)c(NC(=O)c2cc(CN3CCCC3)on2)c1	> 55.7 µM (inactive)
COc1ccccc1NC(=O)c1cc(-c2ccccc2)on1	inactive
COc1cc(NC(=O)c2cc(C3CC3)on2)ccc1Br	inactive

From PubChem BioAssay AID2049 (The Scripps Research Institute Molecular Screening Center, 2009)
